Measured values: patent EP4775575A1, “COMPOUND USED AS CDK4 KINASE INHIBITOR AND USE THEREOF” (TYK Medicines, Inc., priority 2023, dated 2025)
Read-outs that look alike come from different tables or passages of the source.

Columns and labels:
[1] = test system: human mantle cell lymphoma cells JEKO-1; experiment: Cell anti-proliferation assay (MTT), JEKO-1; assay type: cell-based; conditions: JEKO-1 cells, incubated for 5 days
Method: (§1) Human breast cancer cells MCF-7, human ovarian cancer cells A2780, human mantle cell lymphoma cells JEKO-1. DMEM medium (Bio-Channel), DMSO (dimethyl sulfoxide), MTT (thiazolyl blue), 0.25% EDTA-Trypsin (trypsin digestive solution), 1×PBS (phosphate buffered saline, pH 7.2), 96-well plate (Corning), fetal bovine serum (FBS), 10,000 U/mL penicillin-G/streptomycin, high-speed refrigerated centrifuge (EPPENDORF 5810R), and microplate reader (Tecan Spark).
(§2) • A) Tumor cells were cultured in DMEM (high glucose, containing 10% FBS and 100 U/mL penicillin-G/streptomycin) at 37 °C, 5% CO2 and saturated humidity until 80-90% confluence. • B) The medium in the 10 cm culture dish was removed. • C) Cells were rinsed once with 10 mL of 1×PBS. • D) 4 mL of 0.25% EDTA-Trypsin was added, and the cells were digested in a 37 °C, 5% CO2 incubator for 5 minutes. The mixture was transferred to a 15 mL centrifuge tube, centrifuged at 200 g for 5 minutes, and the supernatant was discarded to obtain cell pellet. • E) The cells were resuspended in 4 mL of DMEM medium, counted, and adjusted to 50,000 cells/mL. • F) 100 µL of cell suspension was added to each well of a 96-well plate, and the plate was incubated overnight at 37 °C in a 5% CO2 incubator.
(§3) • A) Gradient dilution solutions of the test compounds were prepared: the test compound was prepared into a 1 mM stock solution. Then 1.5 µL of the stock solution was dissolved in 1.5 mL of DMSO-free medium, followed by 3-fold serial gradient dilution with medium containing 0.1% DMSO to give 9 concentrations.
(§4) • A) The cell culture plate was taken out, and 10 µL of 5 mg/mL MTT was added in a biological safety cabinet; • B) The plate was returned to the incubator and incubated for another 3 hours; • C) The cell culture plate was taken out and the medium was removed, 100 µL of isopropanol (containing 0.4 mM HCl, 0.1% NP-40) was added, and the plate was shaken at room temperature for 30 minutes; • D) The absorbance at 570 nm was measured using a TECAN microplate reader.

[2] = test system: Human breast cancer cells MCF-7; experiment: Cell anti-proliferation assay (MTT), MCF-7; assay type: cell-based; conditions: MCF-7 cells, incubated for 5 days
Method: as §1, §2, §3, §4

[3] = test system: human ovarian cancer cells A2780; experiment: Cell anti-proliferation assay (MTT), A2780; assay type: cell-based; conditions: incubated for 5 days
Method: as §1, §2, §3, §4

[4] = Preclinical pharmacokinetic study in rats; assay type: in vivo, Sprague-Dawley (SD) rats; conditions: male SD rats, oral gavage (p.o.) 10 mg/kg, plasma; for AUC(0-t) / Cmax / Tmax: rat
Method: Healthy adult Sprague-Dawley (SD) rats, male, 6-8 weeks old, weighing 200-300 g. EDTA-Na2 anticoagulant. Analytical balance, animal weighing scale, magnetic stirrer, refrigerated centrifuge, single-channel manual pipette, etc. About 10 mg of the test sample was precisely weighed, dissolved in a calculated volume of 5% DMSO, followed by addition of 10% solutol HS-15 and 85% normal saline. The mixture was sonicated and vortexed to homogeneity to obtain a solution with a concentration of 1 mg/mL. The solution was freshly prepared before use. Animals were housed in rat cages and fasted overnight (no less than 10 h) before the test, with free access to water. On the day of the test, animals were weighed and marked on the tail. Blank blood samples were collected before administration. The blood was collected via tail vein. • Route of administration: oral gavage (p.o.) • Dose: 10 mg/kg • Dosing volume: 10 mL/kg • Procedure: The rat was held upright with the left hand wearing bite-resistant glove. A 16-gauge gavage needle was inserted through the mouth into the esophagus. The needle was advanced gently without obvious resistance, and the drug solution was injected into the stomach. Whole blood (0.1 mL) were collected from each test animal before administration and at 0.5 […], and 24 h after administration into EDTA-Na2 anticoagulant tubes. The tubes were inverted 3-4 times for mixing, then centrifuged at 10,000 g for 5 min at 4 °C to separate plasma. Plasma samples were stored at -80 °C until analysis. Blood was collected via tail vein. […] The mixture was vortexed for 2 min and centrifuged at 10,000 g for 10 min at 4 °C. Processing of unknown plasma samples: 25 μL of drug-containing rat plasma was transferred, followed by addition of 25 μL of methanol and 200 μL of internal standard solution. The mixture was vortexed for 2 min and centrifuged at 10,000 g for 10 min at 4 °C. The supernatant was collected for LC-MS/MS analysis. A quantitative method for the determination of the test compound was established using a Shimadzu liquid chromatography system coupled with Triple Quad^TM 6500+ AB mass spectrometer. The concentration of the parent drug in plasma was determined. The plasma concentration-time curve was plotted, and the main pharmacokinetic parameters were calculated using a non-compartmental model in winnonlin Phoenix software.

CDK6/CyclinD3 = target: T1, CDK6/CyclinD3 (Homo sapiens, UniProt Q00534); experiment: Kinase activity assay (MSA, EZ Reader) against CDK6; assay type: biochemical; conditions: CDK6/CyclinD3 5.00 nM, ATP 350 µM, FL-Peptide34, 10mM MgCl2
T1 construct: purchased Carna 04-107
T1 sequence (Q00534 whole entry): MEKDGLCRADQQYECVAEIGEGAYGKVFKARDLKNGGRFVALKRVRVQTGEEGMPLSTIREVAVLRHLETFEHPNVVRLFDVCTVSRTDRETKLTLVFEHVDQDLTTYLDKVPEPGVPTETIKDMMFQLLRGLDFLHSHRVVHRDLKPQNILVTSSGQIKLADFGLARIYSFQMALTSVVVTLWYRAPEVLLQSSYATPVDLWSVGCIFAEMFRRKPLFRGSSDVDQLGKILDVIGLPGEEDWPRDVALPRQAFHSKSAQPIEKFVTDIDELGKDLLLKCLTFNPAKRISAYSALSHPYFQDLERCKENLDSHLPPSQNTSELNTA
T1 sequence (P30281 whole entry partner): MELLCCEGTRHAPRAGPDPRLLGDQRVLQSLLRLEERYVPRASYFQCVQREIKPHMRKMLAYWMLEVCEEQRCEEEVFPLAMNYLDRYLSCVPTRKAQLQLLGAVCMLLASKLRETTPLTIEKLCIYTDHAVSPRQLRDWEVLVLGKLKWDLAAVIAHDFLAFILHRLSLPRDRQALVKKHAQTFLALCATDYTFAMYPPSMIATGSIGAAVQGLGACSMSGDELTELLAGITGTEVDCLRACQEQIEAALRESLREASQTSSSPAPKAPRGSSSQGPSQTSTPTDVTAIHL

SMILES	IC50 ([1]; Homo sapiens, 120 h)	IC50 ([2]; Homo sapiens, MCF7, 120 h)	IC50 ([3]; Homo sapiens, 120 h)	other results
C[C@H]1CCN([C@H]2C[C@H](O)C2)c2nc3c(F)cc(-c4nc(N[C@@H]5CCOC[C@H]5O)ncc4Cl)cc3n21 [TA-31]				IC50 [1]: ≤ 500 nM; IC50 ([2]; read-out: MCF7 IC50): > 2000 nM; IC50 [3]: 500 to 2000 nM
C[C@H]1CCN(CC(F)(F)F)c2nc3c(F)cc(-c4nc(N[C@@H]5CCOC[C@H]5O)ncc4Cl)cc3n21 [TA-29]	≤ 500 nM	≤ 500 nM	≤ 500 nM	AUC(0-t) ([4]; Sprague-Dawley): 1490 ng·h/mL; Cmax ([4]; Sprague-Dawley): 506 ng/mL; Tmax ([4]; Sprague-Dawley): 40.2 min; HL_ [4]: 1.60 h
C[C@H]1CCN(C2CCCC2)c2nc3c(F)cc(-c4nc(N[C@@H]5CCOC[C@H]5O)ncc4Cl)cc3n21 [TA-6]	500 to 2000 nM	≤ 500 nM	≤ 500 nM	
CN1CCn2c1nc1c(F)cc(-c3nc(NC4CCN(S(C)(=O)=O)CC4)ncc3Cl)cc12 [TB-52, 5-chloro-4-(8-fluoro-1-methyl-2,3-dihydro-1H-benzo[d]imidazo[1,2-a]imidazol-6-yl)-N-(1-(methylsulfonyl)piperidin-4-yl)pyrimidin-2-amine]	≤ 500 nM	≤ 500 nM	≤ 500 nM	IC50 (CDK6/CyclinD3): 40.6 nM
CN1CCCn2c1nc1c(F)cc(-c3nc(Nc4ccncc4)ncc3Cl)cc12 [TB-90]	≤ 500 nM	500 to 2000 nM	≤ 500 nM	IC50 (CDK6/CyclinD3): 95.2 nM
C[C@H]1C[C@H](C)n2c(nc3c(F)cc(-c4nc(N[C@@H]5CCOC[C@H]5O)ncc4Cl)cc32)N1C [TB-153]				IC50 [1]: ≤ 500 nM; IC50 ([2]; read-out: MCF7 IC50): ≤ 500 nM; IC50 [3]: ≤ 500 nM
[2H]C([2H])([2H])N1CC[C@H](C)n2c1nc1c(F)cc(-c3nc(N[C@@H]4CCOC[C@H]4O)ncc3Cl)cc12 [TA-28]				IC50 [1]: ≤ 500 nM; IC50 ([2]; read-out: MCF7 IC50): ≤ 500 nM; HL_ [4]: 1.58 h; AUC(0-t) ([4]; in vivo): 2490 ng·h/mL; Cmax ([4]; in vivo): 990 ng/mL; Tmax ([4]; in vivo): 30 min; IC50 [3]: ≤ 500 nM
CN1CCCn2c1nc1c(F)cc(-c3nc(N[C@@H]4CCOC[C@H]4O)ncc3Cl)cc12 [TB-40]	≤ 500 nM	≤ 500 nM	≤ 500 nM	IC50 (CDK6/CyclinD3): 229 nM
CN1CCCn2c1nc1c(F)cc(-c3nc(N[C@@H]4CCOC[C@H]4O)ncc3C(F)(F)F)cc12 [TB-41, (3S,4R)-4-((4-(9-fluoro-1-methyl-1,2,3,4-tetrahydrobenzo[4,5]imidazo[1,2-a]pyrimidin-7-yl)-5-(trifluoromethyl)pyrimidin-2-yl)amino)tetrahydro-2H-pyran-3-ol]	500 to 2000 nM	500 to 2000 nM	500 to 2000 nM	
C[C@H]1CCN([C@H]2C[C@@H](O)C2)c2nc3c(F)cc(-c4nc(N[C@@H]5CCOC[C@H]5O)ncc4Cl)cc3n21 [TA-42]	500 to 2000 nM	> 2000 nM	500 to 2000 nM	
CC(C)N1CCCn2c1nc1c(F)cc(-c3nc(N[C@@H]4CCOC[C@H]4O)ncc3Cl)cc12 [TB-108, (3S,4R)-4-((5-chloro-4-(9-fluoro-1-isopropyl-1,2,3,4-tetrahydrobenzo[4,5]imidazo[1,2-a]pyrimidin-7-yl)pyrimidin-2-yl)amino)tetrahydro-2H-pyran-3-ol]	≤ 500 nM	≤ 500 nM	≤ 500 nM	AUC(0-t) ([4]; Sprague-Dawley): 1370 ng·h/mL; Cmax ([4]; Sprague-Dawley): 503 ng/mL; Tmax ([4]; Sprague-Dawley): 36 min; HL_ [4]: 1.25 h
CCN1CCCn2c1nc1c(F)cc(-c3nc(N[C@@H]4CCOC[C@H]4O)ncc3Cl)cc12 [TB-109, (3S,4R)-4-((5-chloro-4-(1-ethyl-9-fluoro-1,2,3,4-tetrahydrobenzo[4,5]imidazo[1,2-a]pyrimidin-7-yl)pyrimidin-2-yl)amino)tetrahydro-2H-pyran-3-ol]	≤ 500 nM	500 to 2000 nM	≤ 500 nM	AUC(0-t) ([4]; Sprague-Dawley): 1770 ng·h/mL; Cmax ([4]; Sprague-Dawley): 777 ng/mL; Tmax ([4]; Sprague-Dawley): 30 min; HL_ [4]: 5.32 h
CN1CCC(C)(C)n2c1nc1c(F)cc(-c3cc(N[C@@H]4CCOC[C@H]4O)ncc3Cl)cc12 [TB-150]	≤ 500 nM	≤ 500 nM	≤ 500 nM	
COc1ccc(CN2CC[C@H](C)n3c2nc2c(F)cc(-c4nc(N[C@@H]5CCOC[C@H]5O)ncc4Cl)cc23)cc1 [TA-8]	≤ 500 nM	≤ 500 nM	500 to 2000 nM	
C[C@H]1CCN(S(C)(=O)=O)c2nc3c(F)cc(-c4nc(N[C@@H]5CCOC[C@H]5O)ncc4Cl)cc3n21 [TC-8]	> 2000 nM	> 2000 nM	500 to 2000 nM	
CC(C)n1c(N2CCOC2=O)nc2c(F)cc(-c3nc(N[C@@H]4CCOC[C@H]4O)ncc3C(F)(F)F)cc21 [TB-27]				AUC(0-t) ([4]; Sprague-Dawley): 11500 ng·h/mL; Cmax ([4]; Sprague-Dawley): 1500 ng/mL; Tmax ([4]; Sprague-Dawley): 140 min; HL_ [4]: 3.69 h
C[C@H]1CCN(c2c(F)cccc2F)c2nc3c(F)cc(-c4nc(N[C@@H]5CCOC[C@H]5O)ncc4Cl)cc3n21 [TC-15]	500 to 2000 nM	500 to 2000 nM	500 to 2000 nM	
CN1CCCn2c1nc1c(F)cc(-c3nc(NC4CCN(S(C)(=O)=O)CC4)ncc3Cl)cc12 [TB-43, 5-chloro-4-(9-fluoro-1-methyl-1,2,3,4-tetrahydrobenzo[4,5]imidazo[1,2-a]pyrimidin-7-yl)-N-(1-(methylsulfonyl)piperidin-4-yl)pyrimidin-2-amine]				IC50 [1]: ≤ 500 nM; IC50 ([2]; read-out: MCF7 IC50): ≤ 500 nM; IC50 [3]: ≤ 500 nM
C[C@H]1CCN(C2COC2)c2nc3c(F)cc(-c4nc(N[C@@H]5CCOC[C@H]5O)ncc4Cl)cc3n21 [TA-30]	> 2000 nM	> 2000 nM	> 2000 nM	
C[C@H]1CCN(c2cc(F)ccc2F)c2nc3c(F)cc(-c4nc(N[C@@H]5CCOC[C@H]5O)ncc4Cl)cc3n21 [TC-16]	≤ 500 nM	≤ 500 nM	≤ 500 nM	
COC(=O)N1CCC(Nc2ncc(Cl)c(-c3cc(F)c4nc5n(c4c3)CCCN5C)n2)CC1 [TB-93, methyl 4-((5-chloro-4-(9-fluoro-1-methyl-1,2,3,4-tetrahydrobenzo[4,5]imidazo[1,2-a]pyrimidin-7-yl)pyrimidin-2-yl)amino)piperidine-1-carboxylate]	≤ 500 nM	500 to 2000 nM	≤ 500 nM	
C[C@H]1CC(=O)N(C)c2nc3c(F)cc(-c4cc(N[C@@H]5CCOC[C@H]5O)ncc4Cl)cc3n21 [TB-158]	≤ 500 nM	≤ 500 nM	≤ 500 nM	
C[C@H]1CCN(c2ccccc2C#N)c2nc3c(F)cc(-c4nc(N[C@@H]5CCOC[C@H]5O)ncc4Cl)cc3n21 [TC-18]	≤ 500 nM	≤ 500 nM	≤ 500 nM	
C[C@H]1CCN(CC(F)F)c2nc3c(F)cc(-c4nc(N[C@@H]5CCOC[C@H]5O)ncc4Cl)cc3n21 [TC-6]	≤ 500 nM	500 to 2000 nM	≤ 500 nM	
C[C@H]1CCN(C2CCC2)c2nc3c(F)cc(-c4nc(N[C@@H]5CCOC[C@H]5O)ncc4Cl)cc3n21 [TA-5]	≤ 500 nM	500 to 2000 nM	≤ 500 nM	
